The source of these data is patent US9670157B2, “Benzylamine derivatives” (KALVISTA PHARMACEUTICALS LIMITED, priority 2013, dated 2017).

pIC50: −log10 of the molar value.

In one series the target is Human plasma kallikrein (Homo sapiens (Human), UniProt P03952). The experiment in a line: Determination of the IC50 for Plasma Kallikrein. To be noted: 37° C., fluorogenic substrate H-DPro-Phe-Arg-AFC; read-out: IC50 (human PKal). The format is biochemical. The protocol:
Human plasma kallikrein (Protogen) was incubated at 37° C. with the fluorogenic substrate H-DPro-Phe-Arg-AFC and various concentrations of the test compound. Residual enzyme activity (initial rate of reaction) was determined by measuring the change in optical absorbance at 410 nm and the IC50 value for the test compound was determined.

Another series has as its target Human KLK1 (Homo sapiens (Human), UniProt P06870). The series is described as follows: Determination of the IC50 for KLK1. The format is biochemical. To be noted: 37° C., fluorogenic substrate H-DVal-Leu-Arg-AFC. The method in brief: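 KLK1 inhibition was measured in vitro following standard published methods. Human KLK1 (Callbiochem) was incubated at 37° C. with the fluorogenic substrate H-DVal-Leu-Arg-AFC in the presence of a range of test compound concentrations. Residual enzyme activity, taken as the initial reaction rate, was followed by the change in optical absorbance at 410 nm, and IC50 values were derived.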

The next series addresses thrombin (Homo sapiens (Human), UniProt P00734). The series is described as follows: Determination of Enzyme Selectivity: thrombin. The format is biochemical. To be noted: substrate at Km concentration. The protocol: (§1) Human serine protease enzymes plasmin, thrombin, trypsin, Factor Xa and Factor XIIa were assayed for enzymatic activity using an appropriate fluorogenic substrate. Protease activity was measured by monitoring the accumulation of liberated fluorescence from the substrate over 5 minutes. The linear rate of fluorescence increase per minute was expressed as percentage (%) activity. The Km for the cleavage of each substrate was determined by standard transformation of the Michaelis-Menten equation.

For the next series, the target named is trypsin. The series is described as follows: Determination of Enzyme Selectivity: trypsin. The note with it: substrate at Km concentration. The format is biochemical, Human. The protocol:
as §1

The next series has as its target plasmin (Homo sapiens (Human), UniProt P00747). The experiment in a line: Determination of Enzyme Selectivity: plasmin. The format is biochemical. The note with it: substrate at Km concentration. The protocol: as §1
A further series concerns the target Factor XIIa (Homo sapiens (Human), UniProt P00748). The experiment in a line: Determination of Enzyme Selectivity: Factor XIIa. The format is biochemical. To be noted: substrate at Km concentration. The procedure:
as §1

Series [1] can be described thus: Pharmacokinetics following a single oral dose in rats. The format is in vivo. The note with it: rat, nominal 10 mg/kg, male Sprague-Dawley rats, plasma. The protocol: Pharmacokinetic studies of selected examples were performed to assess the pharmacokinetics following a single oral dose in male Sprague-Dawley rats. Typically, either two or three rats were given a single po dose of 5 mL/kg of a nominal 2 mg/mL (10 mg/kg) composition of test compound in either 5% cremophor:5% ethanol:90% phosphate buffered saline or 20% Labrasol:80% water. Following dosing, blood samples were collected over a period of 8 hours. Typical sample times include 5, 15 and 30 minutes then 1, 2, 4, 6 and 8 hours. Following collection, blood samples were centrifuged and the plasma fraction analysed for concentration of test compound by LCMS.

Chain of Human plasma kallikrein (P03952 391-638): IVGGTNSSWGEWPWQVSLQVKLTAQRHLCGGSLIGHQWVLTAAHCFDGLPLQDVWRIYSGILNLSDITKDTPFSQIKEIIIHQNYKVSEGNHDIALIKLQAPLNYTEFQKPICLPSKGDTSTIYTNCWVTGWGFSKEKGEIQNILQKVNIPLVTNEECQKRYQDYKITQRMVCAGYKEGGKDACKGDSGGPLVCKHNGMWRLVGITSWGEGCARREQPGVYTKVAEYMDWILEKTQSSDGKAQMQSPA
Chain of Human plasma kallikrein (P03952 20-390 partner): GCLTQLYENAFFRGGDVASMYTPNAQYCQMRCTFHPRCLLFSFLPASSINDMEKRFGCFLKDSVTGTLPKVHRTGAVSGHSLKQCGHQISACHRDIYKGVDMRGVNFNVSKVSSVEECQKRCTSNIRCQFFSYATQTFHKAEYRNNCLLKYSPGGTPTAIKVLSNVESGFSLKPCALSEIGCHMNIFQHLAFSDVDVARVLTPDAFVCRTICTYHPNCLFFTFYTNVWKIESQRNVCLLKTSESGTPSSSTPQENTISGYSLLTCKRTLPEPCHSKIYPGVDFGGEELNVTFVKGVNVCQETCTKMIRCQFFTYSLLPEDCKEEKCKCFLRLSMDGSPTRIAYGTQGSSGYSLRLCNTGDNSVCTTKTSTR
Chain of Human KLK1 (P06870 25-262): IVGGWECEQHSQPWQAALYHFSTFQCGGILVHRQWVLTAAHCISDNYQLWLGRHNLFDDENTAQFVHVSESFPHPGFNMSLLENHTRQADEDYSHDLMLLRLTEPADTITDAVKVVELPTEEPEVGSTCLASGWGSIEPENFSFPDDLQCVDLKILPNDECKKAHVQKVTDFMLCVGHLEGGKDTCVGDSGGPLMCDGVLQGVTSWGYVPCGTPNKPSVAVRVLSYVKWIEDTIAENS
Chain of plasmin (P00747 581-810): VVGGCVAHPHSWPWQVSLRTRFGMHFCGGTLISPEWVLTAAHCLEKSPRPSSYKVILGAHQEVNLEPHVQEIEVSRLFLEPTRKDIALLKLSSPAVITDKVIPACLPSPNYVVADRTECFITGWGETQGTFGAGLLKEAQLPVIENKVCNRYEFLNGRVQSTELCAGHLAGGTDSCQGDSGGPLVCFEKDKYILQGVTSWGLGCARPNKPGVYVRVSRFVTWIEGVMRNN
Chain of plasmin (P00747 97-580 partner): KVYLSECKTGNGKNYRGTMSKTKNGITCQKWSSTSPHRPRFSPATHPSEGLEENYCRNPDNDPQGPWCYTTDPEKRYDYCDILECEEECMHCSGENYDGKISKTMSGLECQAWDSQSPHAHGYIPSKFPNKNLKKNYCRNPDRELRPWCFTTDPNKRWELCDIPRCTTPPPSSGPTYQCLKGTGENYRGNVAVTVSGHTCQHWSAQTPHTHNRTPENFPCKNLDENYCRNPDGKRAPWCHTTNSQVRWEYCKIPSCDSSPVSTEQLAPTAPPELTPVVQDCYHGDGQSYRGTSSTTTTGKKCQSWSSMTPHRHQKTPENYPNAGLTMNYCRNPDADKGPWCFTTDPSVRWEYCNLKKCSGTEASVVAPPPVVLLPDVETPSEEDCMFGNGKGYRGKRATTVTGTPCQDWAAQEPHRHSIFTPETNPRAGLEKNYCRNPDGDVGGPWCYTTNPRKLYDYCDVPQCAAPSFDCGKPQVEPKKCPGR
Chain of Factor XIIa (P00748 373-615): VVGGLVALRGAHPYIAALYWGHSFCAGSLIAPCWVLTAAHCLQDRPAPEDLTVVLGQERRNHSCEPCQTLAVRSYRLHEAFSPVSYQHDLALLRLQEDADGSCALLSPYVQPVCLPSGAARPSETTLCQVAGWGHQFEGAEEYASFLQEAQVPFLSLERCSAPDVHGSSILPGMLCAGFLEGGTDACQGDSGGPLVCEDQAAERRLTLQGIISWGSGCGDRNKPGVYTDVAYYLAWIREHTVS

Usually pIC50 stands for the IC50 on a negative log10 scale, so that one unit is a factor of ten. One may read the Cmax as the peak of the concentration-time curve. One may read the Tmax as the time from dosing to the highest level. With `Cc1cc(C(=O)NCc2ccc(CN)cc2)c(C)n1Cc1csc(-c2ccccc2)n1` [Example 1, 2,5-Dimethyl-1-(2-phenyl-thiazol-4-ylmethyl)-1H-pyrrole-3-carboxylic acid 4-aminomethyl-benzylamide], the pIC50 at Human plasma kallikrein is 7.20; on Human KLK1, under 5.00; on thrombin, under 4.40; against trypsin it was under 4.40; against plasmin, under 4.40; against Factor XIIa it was under 5.00. Also, in series [1], the concentration peaked (Cmax) at 81 ng/mL. Besides, in series [1], the time to peak (Tmax) is 4.67 h.

On to `Cc1ccc2cc(Cn3ncc(C(=O)NCc4c(C)cc(CN)cc4C)c3C(F)(F)F)ccc2n1` [Example 127, 1-(2-Methyl-quinolin-6-ylmethyl)-5-trifluoromethyl-1H-pyrazole-4-carboxylic acid 4-aminomethyl-2,6-dimethyl-benzylamide], for which the pIC50 against Human KLK1 was under 5.00; at Factor XIIa, under 4.40.

Turning to `Cc1cc(C(=O)NCc2ccc(CN)cc2)c(C)n1Cc1csc(-c2ccsc2)n1` [Example 37, 2,5-Dimethyl-1-(2-thiophen-3-yl-thiazol-4-ylmethyl)-1H-pyrrole-3-carboxylic acid 4-aminomethyl-benzylamide], the pIC50 at Human plasma kallikrein is 6.77. Also, the pIC50 against Human KLK1 is under 5.00. Moreover, in series [1], the peak level (Cmax) was 171 ng/mL and the Tmax was 3.5 h.

As to `Cc1ccc2cc(Cn3cc(C(=O)NCc4c(C)cc(CN)cc4C)c(C(F)(F)F)n3)ccc2n1` [Example 126, 1-(2-Methyl-quinolin-6-ylmethyl)-3-trifluoromethyl-1H-pyrazole-4-carboxylic acid 4-aminomethyl-2,6-dimethyl-benzylamide], the values for the pIC50 against Human KLK1 and on Factor XIIa were 6.25 and under 4.40, respectively.

Turning to `Cc1cnn(Cc2ccc(Cn3cc(C(=O)NCc4ccc(CN)c(F)c4C)c(C(F)(F)F)n3)cc2)c1` [Example 119, 1-[4-(4-Methyl-pyrazol-1-ylmethyl)-benzyl]-3-trifluoromethyl-1H-pyrazole-4-carboxylic acid 4-aminomethyl-3-fluoro-2-methyl-benzylamide], the results for the pIC50 at Human plasma kallikrein, against Human KLK1 and against Factor XIIa were 8.05, under 5.00 and under 4.40, respectively.

`Cc1ccc2cc(Cn3cc(C(=O)NCc4c(C)cc(CN)cc4C)c(C)n3)ccc2n1` [Example 124, 3-Methyl-1-(2-methyl-quinolin-6-ylmethyl)-1H-pyrazole-4-carboxylic acid 4-aminomethyl-2,6-dimethyl-benzylamide]: the pIC50 on Human plasma kallikrein was 8.70; against Human KLK1 it was 6.52; against Factor XIIa, under 4.40.

`Cc1cc(C(=O)NCc2ccc(CN)nc2)c(C)n1Cc1csc(-c2ccccc2)n1` [Example 43, 2,5-Dimethyl-1-(2-phenyl-thiazol-4-ylmethyl)-1H-pyrrole-3-carboxylic acid (6-aminomethyl-pyridin-3-ylmethyl)-amide]: the pIC50 at Human plasma kallikrein was 6.71; against Human KLK1, under 5.00. Besides, in series [1], the peak level (Cmax) was 71 ng/mL. Moreover, the Tmax in series [1] was 4 h.

With `Cc1cnn(Cc2ccc(Cn3c(C)cc(C(=O)NCc4c(C)cc(CN)cc4C)c3C)cc2)c1` [Example 101, 2,5-Dimethyl-1-[4-(4-methyl-pyrazol-1-ylmethyl)-benzyl]-1H-pyrrole-3-carboxylic acid 4-aminomethyl-2,6-dimethyl-benzylamide], the pIC50 was 8.40 on Human plasma kallikrein, 5.20 at Human KLK1 and under 5.00 on Factor XIIa. Also, the Cmax in series [1] turned out to be 67 ng/mL. Further, the Tmax in series [1] is 5 h.

Turning to `Cc1cc(CN)ccc1CNC(=O)c1cc(C)n(Cc2csc(-c3ccccc3)n2)c1C` [Example 2, 2,5-Dimethyl-1-(2-phenyl-thiazol-4-ylmethyl)-1H-pyrrole-3-carboxylic acid 4-aminomethyl-2-methyl-benzylamide], the pIC50 on Human plasma kallikrein was 7.82; against Human KLK1 it was under 5.00; at thrombin, under 4.40; against trypsin, under 4.40; on plasmin, 4.61; against Factor XIIa, under 5.00. In series [1], the Cmax worked out at 59 ng/mL. Also, the Tmax in series [1] was 5 h.

On to `Cc1cc(C(=O)NCc2ccc(CN)c(F)c2)c(C)n1Cc1csc(-c2ccccc2)n1` [Example 45, 2,5-Dimethyl-1-(2-phenyl-thiazol-4-ylmethyl)-1H-pyrrole-3-carboxylic acid 4-aminomethyl-3-fluoro-benzylamide], for which the pIC50 on Human plasma kallikrein was 6.87. This compound had a negative-log IC50 (pIC50) against Human KLK1 of under 5.00. Besides, in series [1], the Cmax stood at 228 ng/mL and the Tmax is 2.58 h.

Consider `Cc1ccc2cc(Cn3ncc(C(=O)NCc4c(C)cc(CN)cc4C)c3C)ccc2n1` [Example 125, 5-Methyl-1-(2-methyl-quinolin-6-ylmethyl)-1H-pyrazole-4-carboxylic acid 4-aminomethyl-2,6-dimethyl-benzylamide], for which the pIC50 on Human plasma kallikrein was 8.52; against Human KLK1, 6.18; on Factor XIIa, under 4.40.

Take `NCc1ccc(CNC(=O)c2cn(Cc3ccccc3)nc2-c2ccccc2)cc1` [Example 84, 1-Benzyl-3-phenyl-1H-pyrazole-4-carboxylic acid 4-aminomethyl-benzylamide]: the pIC50 was 5.08 on Human plasma kallikrein; under 5.00 at Human KLK1; under 4.40 against thrombin; under 4.40 against trypsin; under 4.40 against plasmin; under 5.00 at Factor XIIa.

On to `NCc1ccc(CNC(=O)c2cn(Cc3csc(-c4ccccc4)n3)nc2C(F)(F)F)cc1` [Example 83, 1-(2-Phenyl-thiazol-4-ylmethyl)-3-trifluoromethyl-1H-pyrazole-4-carboxylic acid 4-aminomethyl-benzylamide], for which the pIC50 at Human plasma kallikrein was 6.34; on Human KLK1, under 5.00; against thrombin it was under 4.40; against trypsin, 4.58; at plasmin, 4.56; on Factor XIIa it was under 5.07.

For the compound `Cc1cc(C(=O)NCc2ccc(CN)cc2)c(C)n1Cc1ccc(OCc2ccccc2)cc1` [Example 60, 1-(4-Benzyloxy-benzyl)-2,5-dimethyl-1H-pyrrole-3-carboxylic acid 4-aminomethyl-benzylamide], the pIC50 at Human plasma kallikrein was 5.51; on Human KLK1, under 5.00.
